Data as given in patent US20170044150A1, “IDENTIFICATION OF COMPOUNDS WHICH INHIBIT ATG8-ATG3 PROTEIN-PROTEIN INTERACTION AND THEIR USE AS ANTIPARASITICAL AGENTS” (THE JOHNS HOPKINS UNIVERSITY, priority 2014, published 2017).
Read-outs that look alike come from different tables or passages of the source.

What was measured:
HC-04 cells = assay: HC-04 hepatocyte viability / cytotoxicity (Annexin-V, PI flow cytometry); format: cell-based, human; details: 30 μM
Procedure: Detection of Annexin-V positive and PI-positive cells in hepatocyte cultures was done by flow cytometry according to the manufacturer's instruction (Invitrogen™, Life Technologies, Grand Island, N.Y., USA).
Hepatocyte cytotoxicity assay. Hepatocyte cytotoxicity assays were carried out in triplicate at two concentrations of inhibitory compounds using HC-04 cells as previously described. Flow cytometry was used to assess two cytotoxicity markers via staining, namely propidium iodine (PI) and Annexin-V.

PfAtg8^CM [1] = target: PfAtg8^CM (Plasmodium falciparum, UniProt Q8IJK2); assay: SPR direct binding of compound 1 to immobilized His12-PfAtg8^CM; design: other: 2-fold dilution series, highest 75 μM; fused on or other part: N-terminal His12 tag; species or system P. falciparum; details: 2-fold dilution series, highest 75 μM
Procedure: His12-PfAtg8^CM was injected over an NTA-chip (GE Healthcare) preconditioned with nickel, leading to capture of 3,000 response units (RUs). Running buffer contained 3% DMSO. A 2-fold-dilution series of compounds, highest concentration of 75 μM, was injected over PfAtg8 variants at 40 μL/minute.
Determination of the PTA binding site on PfAtg8. The inventors tested whether these compounds bound directly to PfAtg8 using SPR. PfAtg8^CM was immobilized onto an SPR Ni-NTA chip via a twelve histidine N-terminal tag. […] It was then sought to determine the binding site for the PTA compounds with in silico docking.

PfAtg8 = assay: Immunoblot analysis of PfAtg8 in P. falciparum blood stage cultures; format: cell-based; details: for lipidation of PfAtg8: 12 hours
Text: Immunoblot analysis of P. falciparum blood stage. […] RBCs were harvested with centrifugation, lysed with 0.2% saponin, and RBC lysate was removed through three 1× PBS washes. Parasites were harvested by centrifugation and washed in 1× PBS with Complete EDTA-free protease inhibitors (Roche) and lysed by repeated vortexing and boiling in SDS reducing sample buffer. […] HRP-conjugated secondary antibodies (Southern Biotech) were detected by SuperSignal West Femto (Thermo Scientific) or Amersham™ ECL™ Prime (GE Healthcare) chemiluminescent substrate. AP-conjugated secondary antibodies (EMD Millipore) were detected using NBT/BCIP (Promega) colorimetric stain. Total protein levels were visualized with ProAct™ Membrane Stain (Amresco) and quantified with ImageJ. Parasite morphology at time of harvesting was visualized with light microscopy at 100× magnification on Olympus BX53 system microscope (Olympus America, Inc.).

P. yoelii liver stage = details: screening concentration 10 μM; cited from earlier work
human cell lines = details: cited from earlier work
P. falciparum 3D7 = assay: SYBR Green I growth inhibition assay, blood stage; format: cell-based; details: Plasmodium falciparum
Procedure: P. falciparum blood stage culturing. P. falciparum 3D7 and FCR3 cultures were maintained using modified, previously published methods at 37° C., 2% hematocrit of human red blood cells (Science 1976, 193, 673-675). Complete culture media consisted of sterile RPMI 1640 media (Life Technologies), supplemented with 10% human serum, 0.005% hypoxanthine, and buffered with final concentrations of 0.6% HEPES and 0.26% NaHCO3. The FCR3 strain was maintained at 3% CO2 and 5% O2, 92% N2 atmosphere, while the 3D7 strain was maintained at 5% CO2, 5% O2, 90% N2 atmosphere.
SYBR Green I growth inhibition assay. 10 μL of 10× compound diluted in RPMI 1640 media (Gibco) with a constant concentration of 1% DMSO was added to a 96 well plate (Costar), 90 μL of 1.5% ring stage, synchronized with 5% w/v sorbitol P. falciparum 3D7 parasites, 1% hematocrit, in culture media with 10% v/v human serum with 10 μg/mL gentamycin. Each compound concentration and 1% v/v DMSO controls were run in triplicate. Plates were incubated at 37° C. in 5% O2, 5% CO2 and 90% N2 for 72 hours. Plates were frozen, thawed, and incubated with 100-μL 2× SYBR green in lysis buffer (20 mM Tris pH 7.5, 5 mM EDTA, 0.008% Saponin, 0.08% TritonX-100) in the dark for at least one hour. Fluorescence was measured with a plate reader (HTS 7000, Perkin Elmer) at excitation/emission wavelengths of 485/535 nm.
Plasmodium parasite growth inhibition assay. P. falciparum 3D7 parasites were cultured as previously described (J Med Chem 57:4521-4531(2014)). Briefly, the parasites were cultured in 10% v/v human serum with 10 μg/mL gentamycin and synchronized with 5% w/v sorbitol. 1.5% ring stage parasites were added to 96 well plates (Costar) containing serial dilutions, performed in triplicate, of compound in RPMI 1640 media (Gibco). Plates were incubated at 37° C. in 5% O2, 5% CO2, and 90% N2 for 72 h. Plates were frozen, thawed, and incubated with 100 μL 2× SYBR green in lysis buffer (20 mM Tris pH 7.5, 5 mM EDTA, 0.008% Saponin, 0.08% TritonX-100) in the dark for 1 h. Fluorescence was measured with a plate reader (HTS 7000, PerkinElmer) at excitation/emission wavelengths of 485/535 nm.

P. falciparum 3D7-GFP = format: cell-based; details: for decrease in the proportion of infected hepatocytes (GFP+/PI- cells): 72 hours post infection
Procedure: In vitro infection of human hepatocytes with P. falciparum 3D7-GFP. The HC-04 cell line (ATCC, Manassas, Va., USA) was maintained in complete medium (IMDM containing 2.5% FCS, 100 units/ml penicillin, 100 μg/ml streptomycin and 2 mM L-glutamine, all from GIBCO®, Life Technologies, Grand Island, N.Y.). P. falciparum 3D7-GFP parasite strain (PLoS ONE 2010, 5, e9156) was propagated in the Parasitology Core facility, the Johns Hopkins Malaria Research Institute. In vitro infection of human hepatocytes was done as described previously (PLoS ONE 2013, 8, e75321). Briefly, salivary glands were sequestered from infected Anopheles gambiae mosquitoes at day 17 after exposure to infective blood meal and homogenates were separated on an OptiPrep™ Density Gradient (Sigma-Aldrich, St. Louis, Mo.) at 12,000×g for 10 minutes. Sporozoites were collected from the gradient interface, washed in complete medium, counted using a hemocytometer and incubated with HC-04 cells at 3:1 sporozoite to hepatocyte ratio for 2 hours at 37° C. […]
Detection of P. falciparum exoerythrocytic forms in vitro. HC-04 human hepatocyte cell line (ATCC, Manassas, Va., USA) was maintained in complete medium (IMDM containing 2.5% FCS, 100 units/ml penicillin, 100 μg/ml streptomycin and 2 mM L-glutamine, all from GIBCO®, Life Technologies, Grand Island, N.Y.). P. falciparum 3D7HT-GFP parasite strain (PLoS One. 5(2):e9156. doi:10.1371/journal.pone.0009156 (2010)) was propagated in the Parasitology Core facility of the Johns Hopkins Malaria Research Institute. In vitro infection of human hepatocytes, and detection and quantification of P. falciparum 3D7HT-GFP EEFs by flow cytometry were performed as previously described (PLoS One. 8(9):e75321. doi:10.1371/journal.pone.0075321 (2013)).

[2] = target: PfAtg8-PfAtg3 interaction (Plasmodium falciparum, UniProt Q8IJK2); format: binding, P. falciparum
hLC3 = target: T1, hLC3 (Homo sapiens, UniProt Q9GZQ8); assay: SPR binding of hLC3 to immobilized compound 8
T1 construct: made in house
Procedure: (§1) Direct binding of compound 8 to PfAtg8^CM. Compound 8 was injected over a neutravidin-coated SPR chip (GE Healthcare) on one flowcell, with 130 RUs immobilized, while BACH was injected over a reference flowcell (150 RUs immobilized). His6-PfAtg8^CM, Human LC3, or His6-PfAtg3 was injected in duplicate in running buffer containing 10 mM HEPES pH 7.5, 150 mM NaCl, 0.05% P20. Protein was dissociated from the chip after each cycle with 10 μL injection of 20 mM HEPES pH 7.4, 1% w/v SDS regeneration solution.
(§2) Synthesis of a novel PTA derivative with a functional handle. […] A PTA-benzaldehyde derivative, 4-formyl-N-(4-pyridin-2-yl-1,3-thiazol-2-yl)benzamide (compound 7) was synthesized with a functional handle extending off the common hydrophobic ring system (Table 1, Scheme 1). Compound 7 was prepared from commercially available PTA and 4-formyl benzoic acid through a DCC-promoted amide coupling. Compound 7 can be tethered through a dialkoxyamine linker to a library of aldehydes and screened using our primary SPR competition assay against the PfAtg8-PfAtg3 interaction. In docking studies, compound 7 bound the W- and L-site of PfAtg8 in a fashion similar to compound 2, with the functional handle positioned towards the A-loop pocket (FIG. 7A). A gain in parasite selectivity for such bifunctional analogs is expected as the A-loop is missing in the human Atg8 homologues. […]

PfAtg3 = target: T2, PfAtg3 (Plasmodium falciparum, UniProt C0H519); assay: SPR binding of PfAtg3 to immobilized compound 8; details: data not shown
T2 construct: made in house
T2 sequence (C0H519 1-313): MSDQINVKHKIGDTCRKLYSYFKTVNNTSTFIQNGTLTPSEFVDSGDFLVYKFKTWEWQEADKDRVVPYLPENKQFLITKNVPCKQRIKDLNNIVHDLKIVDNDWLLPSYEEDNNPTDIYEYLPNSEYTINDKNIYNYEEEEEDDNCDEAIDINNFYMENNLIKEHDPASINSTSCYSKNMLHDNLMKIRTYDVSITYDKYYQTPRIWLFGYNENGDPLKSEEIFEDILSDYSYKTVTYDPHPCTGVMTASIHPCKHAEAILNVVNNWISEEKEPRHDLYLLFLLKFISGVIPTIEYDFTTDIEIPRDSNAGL
Procedure: as §1, §2

PfAtg8^CM [3] = target: T3, PfAtg8^CM (Plasmodium falciparum, UniProt Q8IJK2); assay: SPR binding of PfAtg8^CM to immobilized compound 8; design: species or system P. falciparum
T3 construct: rows headed: KD; other: immobilized compound
T3 sequence (Q8IJK2 1-124 C32I/C119S/C122S): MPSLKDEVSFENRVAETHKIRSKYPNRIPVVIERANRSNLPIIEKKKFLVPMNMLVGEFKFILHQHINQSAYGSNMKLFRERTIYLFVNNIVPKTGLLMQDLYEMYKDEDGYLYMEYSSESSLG
Procedure: as §1, §2

[4] = 3D7, no asterisk, read-out: IC50 Blood stage

## Cc1ccc(Nc2nc(-c3ccccn3)cs2)cc1 [Compound 1, N-(4-methylphenyl)-4-pyridin-2-yl-1,3-thiazol-2-amine]
HC-04 cells
  cell death in HC-04 cells: did not observe cell death
PfAtg8^CM [1]
  SPR response, direct binding to PfAtg8^CM: dose-dependent increase in SPR response
PfAtg8; 5 μM
  lipidation of PfAtg8: dose-dependent decrease in lipidation
PfAtg8; 25 μM and 50 μM
  lipidation of PfAtg8: unlipidated PfAtg8 is exclusively detected
PfAtg8; 50 μM, five hours
  PfAtg8 protein levels: drastic increase
  mobility of PfAtg8: shift in mobility, likely corresponding to the unlipidated form of PfAtg8
P. yoelii liver stage
  inhibition in P. yoelii liver stage cultures: ≤ 50%
Human cell lines
  reported cytotoxicity in human cell lines: much lower than that of compounds 2 or 3
P. falciparum 3D7; [4]
  IC50: 1470 nM
P. falciparum 3D7; 3D7, third experiment, read-out: IC50
  IC50: 3300 nM
P. falciparum 3D7; 3D7, two of three independent experiments, read-out: IC50
  IC50: 768 nM
P. falciparum 3D7; 3D7, two to three experiments, read-out: average IC50
  IC50: 1610 ± 1470 nM
P. falciparum 3D7-GFP; 3 μM and 30 μM, 72 hours
  intensity of GFP fluorescence: dose-dependent reduction
P. falciparum 3D7-GFP; 3 μM
  decrease in the proportion of infected hepatocytes (GFP+/PI- cells): but not 3 μM
P. falciparum 3D7-GFP; 30 μM
  decrease in the proportion of infected hepatocytes (GFP+/PI- cells): ~50%

## O=C(CCCC[C@H]1SC[C@H]2NC(=O)N[C@H]21)NCCCCCC(=O)NNCc1ccc(C(=O)Nc2nc(-c3ccccn3)cs2)cc1 [Compound 8, 4-[[2-[6-[5-[(3aR,4R,6aS)-2-Oxo-1,3,3a,4,6,6a-hexahydrothieno[3,4-d]imidazol-4-yl]pentanoylamino]hexanoyl]hydrazinyl]methyl]-N-(4-pyridin-2-yl-1,3-thiazol-2-yl)benzamide]
[2]; -log (IC50)/number of heavy atoms
  LEAN (SPR): 0.22
[2]; read-out: IC50 SPR, inhibition of PfAtg8-PfAtg3 interaction
  IC50: 2660 nM
hLC3
  Kd: 18000 nM
PfAtg3
  binding of recombinant PfAtg3: did not bind
PfAtg8^CM [3]
  Kd: 540 nM
P. falciparum 3D7; [4]
  IC50: 1480 nM
